Assay results published in patent US6706663B2, “Herbicidal 3-heterocyclic substituted benzisothiazole and benzisoxazole compounds” (Wyeth, priority 2000, dated 2004).

Legend:
[1] = test system: CASOB (Cassia obtusifolia); test: Postemergence herbicidal evaluation; assay type: in vivo, L.
Procedure, shortened: (§1)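 Seedlings grown about two weeks in flats, sprayed, then kept under standard greenhouse care. Rated visually 4–5 weeks after treatment on a 0–9 scale (stand, vigour, malformation, size, chlorosis, overall appearance) relative to untreated control; repeat tests averaged.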

[2] = test system: AMBEL (Ambrosia artemisifolia); test: Postemergence herbicidal evaluation; assay type: in vivo, L.
Procedure, shortened: as §1

[3] = test system: CHEAL (Chenopodium album); test: Postemergence herbicidal evaluation; assay type: in vivo, L.
Procedure, shortened: as §1

[4] = test system: IPOHE (Ipomoea hederacea); test: Postemergence herbicidal evaluation; assay type: in vivo, (L.) Jacq.
Procedure, shortened: as §1

[5] = test system: ABUTH (Abutilon theophrasti); test: Postemergence herbicidal evaluation; assay type: in vivo, Medic.
Procedure, shortened: as §1

[6] = test system: MOOVA (Monochoria vaginalis); test: Flooded paddy, preemergence weed control; assay type: in vivo, Presl.; settings: rated 3-4 weeks after treatment, 0-9 rating scale
Procedure, shortened: (§2)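 Visual 0–9 ratings versus controls scored stand, vigor, malformation, size, chlorosis and overall appearance. Plants grew from seeds or propagating organs sown 0.5 cm deep in silt loam, with water held 1.5–3 cm above the soil for the whole test under greenhouse care.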

GALAP (Galium aparine) [7] = test: Preemergence herbicidal evaluation; assay type: in vivo; settings: rated 4-5 weeks after treatment
Procedure, shortened: (§3)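 Seeds planted in potting soil cups and sprayed preemergence with aqueous acetone compound solution. Greenhouse-grown; rated 4–5 weeks after treatment on a 0-9 visual scale (stand, vigor, malformation, size, chlorosis, appearance) versus control.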

SETVI (Setaria viridis) [8] = test: Postemergence herbicidal evaluation; assay type: in vivo, (L.) Beau
Procedure, shortened: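 ~2-wk seedlings; spray 0.0040–1.000 kg/ha in 50/50 acetone/water + 0.5% TWEEN 20, 40 psi nozzle. Greenhouse hold; visual 0–9 rating vs control at 4–5 wk; multiple tests averaged.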

[9] = test system: TRZAWR (Wheat, Winter, cv Riband); test: Postemergence herbicidal evaluation; assay type: in vivo, Triticum aestivum
Procedure, shortened: as §1

ORYSAT (Rice, Tebonnet) [10] = test: Postemergence herbicidal evaluation; assay type: in vivo, Oryza sativa, (L.) Tebonnet
Procedure, shortened: as §1

GALAP (Galium aparine) [11] = test: Postemergence herbicidal evaluation; assay type: in vivo
Procedure, shortened: as §1

CYPIR (Cyperus iria) = test: Flooded paddy, preemergence weed control; assay type: in vivo; settings: rated 3-4 weeks after treatment, 0-9 rating scale
Procedure, shortened: as §2

[12] = test system: SAGPY (Sagittaria pygmaea); test: Flooded paddy, preemergence weed control; assay type: in vivo, L.; settings: rated 3-4 weeks after treatment, 0-9 rating scale
Procedure, shortened: as §2

ORYSAT (Rice, Tebonnet) [13] = test: Preemergence herbicidal evaluation; assay type: in vivo, Oryza sativa, (L.) Tebonnet; settings: rated 4-5 weeks after treatment
[14] = test system: ECHCG (Echinochloa crus-galli); test: Preemergence herbicidal evaluation; assay type: in vivo, (L.) Beau; settings: rated 4-5 weeks after treatment
Procedure, shortened: as §3

SETVI (Setaria viridis) [15] = test: Preemergence herbicidal evaluation; assay type: in vivo, (L.) Beau; settings: rated 4-5 weeks after treatment
Procedure, shortened: as §3

[16] = test system: CASOB (Cassia obtusifolia); test: Preemergence herbicidal evaluation; assay type: in vivo, L.; settings: rated 4-5 weeks after treatment
Procedure, shortened: as §3

[17] = test system: AMBEL (Ambrosia artemisifolia); test: Preemergence herbicidal evaluation; assay type: in vivo, L.; settings: rated 4-5 weeks after treatment
Procedure, shortened: as §3

[18] = test system: CHEAL (Chenopodium album); test: Preemergence herbicidal evaluation; assay type: in vivo, L.; settings: rated 4-5 weeks after treatment
Procedure, shortened: as §3

[19] = test system: CYPSE (Cyperus serotinus); test: Flooded paddy, preemergence weed control; assay type: in vivo, Rottb.; settings: rated 3-4 weeks after treatment, 0-9 rating scale
Procedure, shortened: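 Seeds or propagules were planted 0.5 cm deep in silt loam and flooded to 1.5–3 cm. Compounds in 50/50 v/v aqueous/acetone were pipetted into the flood water at about 0.0080 to 0.1250 kg/ha. After 3–4 weeks in the greenhouse, effect was rated visually on a 0–9 scale versus untreated control.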

## Cc1cc(C)nc(-c2nsc3ccc(-n4c(=O)cc(C(F)(F)F)n(C)c4=O)cc23)n1 [Compound 40, 3-[3-(4,6-dimethyl-2-pyrimidinyl)-1,2-benzisothiazol-5-yl]-1-methyl-6-(trifluoromethyl)uracil]
[1]; rate 0.0320 kg/ha
  Postemergence herbicidal rating, CASOB: 1.0
[1]; rate 0.0620 kg/ha
  Postemergence herbicidal rating, CASOB: 6.0
[2]; rate 0.0320 kg/ha
  Postemergence herbicidal rating, AMBEL: 9.0
[2]; rate 0.0620 kg/ha
  Postemergence herbicidal rating, AMBEL: 9.0
[3]; rate 0.0320 kg/ha
  Postemergence herbicidal rating, CHEAL: 4.0
[3]; rate 0.0620 kg/ha
  Postemergence herbicidal rating, CHEAL: 6.0
[4]; rate 0.0320 kg/ha
  Postemergence herbicidal rating, IPOHE: 9.0
[4]; rate 0.0620 kg/ha
  Postemergence herbicidal rating, IPOHE: 9.0
[5]; rate 0.0320 kg/ha
  Postemergence herbicidal rating, ABUTH: 9.0
[5]; rate 0.0620 kg/ha
  Postemergence herbicidal rating, ABUTH: 9.0
[6]; rate 0.0320 kg/ha
  herbicidal rating, MOOVA: 7.0
[6]; rate 0.1250 kg/ha
  herbicidal rating, MOOVA: 9.0
GALAP (Galium aparine) [7]; Rate 0.0620 kg/ha
  Preemergence herbicidal rating GALAP: 0.0
GALAP (Galium aparine) [7]; Rate 0.1250 kg/ha
  Preemergence herbicidal rating GALAP: 0.0
GALAP (Galium aparine) [7]; Rate 0.2500 kg/ha
  Preemergence herbicidal rating GALAP: 8.0
SETVI (Setaria viridis) [8]; rate 0.0320 kg/ha
  Postemergence herbicidal rating, SETVI: 3.0
SETVI (Setaria viridis) [8]; rate 0.0620 kg/ha
  Postemergence herbicidal rating, SETVI: 9.0
[9]; rate 0.0320 kg/ha
  Postemergence herbicidal rating, TRZAWR: 3.5
[9]; rate 0.0620 kg/ha
  Postemergence herbicidal rating, TRZAWR: 4.0
ORYSAT (Rice, Tebonnet) [10]; rate 0.0320 kg/ha
  Postemergence herbicidal rating, ORYSAT: 2.0
ORYSAT (Rice, Tebonnet) [10]; rate 0.0620 kg/ha
  Postemergence herbicidal rating, ORYSAT: 2.0
GALAP (Galium aparine) [11]; rate 0.0320 kg/ha
  Postemergence herbicidal rating, GALAP: 2.0
GALAP (Galium aparine) [11]; rate 0.0620 kg/ha
  Postemergence herbicidal rating, GALAP: 2.0
CYPIR (Cyperus iria); rate 0.0320 kg/ha
  herbicidal rating, CYPIR: 5.0
CYPIR (Cyperus iria); rate 0.1250 kg/ha
  herbicidal rating, CYPIR: 6.0
[12]; rate 0.0320 kg/ha
  herbicidal rating, SAGPY: 0.0
[12]; rate 0.1250 kg/ha
  herbicidal rating, SAGPY: 5.0
ORYSAT (Rice, Tebonnet) [13]; Rate 0.0620 kg/ha
  Preemergence herbicidal rating ORYSAT: 1.0
ORYSAT (Rice, Tebonnet) [13]; Rate 0.1250 kg/ha
  Preemergence herbicidal rating ORYSAT: 2.0
ORYSAT (Rice, Tebonnet) [13]; Rate 0.2500 kg/ha
  Preemergence herbicidal rating ORYSAT: 4.0
[14]; Rate 0.0620 kg/ha
  Preemergence herbicidal rating ECHCG: 3.0
[14]; Rate 0.1250 kg/ha
  Preemergence herbicidal rating ECHCG: 7.0
[14]; Rate 0.2500 kg/ha
  Preemergence herbicidal rating ECHCG: 8.0
SETVI (Setaria viridis) [15]; Rate 0.0620 kg/ha
  Preemergence herbicidal rating SETVI: 3.0
SETVI (Setaria viridis) [15]; Rate 0.1250 kg/ha
  Preemergence herbicidal rating SETVI: 9.0
SETVI (Setaria viridis) [15]; Rate 0.2500 kg/ha
  Preemergence herbicidal rating SETVI: 9.0
[16]; Rate 0.0620 kg/ha
  Preemergence herbicidal rating CASOB: 1.0
[16]; Rate 0.1250 kg/ha
  Preemergence herbicidal rating CASOB: 2.0
[16]; Rate 0.2500 kg/ha
  Preemergence herbicidal rating CASOB: 5.0
[17]; Rate 0.0620 kg/ha
  Preemergence herbicidal rating AMBEL: 3.0
[17]; Rate 0.1250 kg/ha
  Preemergence herbicidal rating AMBEL: 5.0
[17]; Rate 0.2500 kg/ha
  Preemergence herbicidal rating AMBEL: 9.0
[18]; Rate 0.0620 kg/ha
  Preemergence herbicidal rating CHEAL: 9.0
[18]; Rate 0.1250 kg/ha
  Preemergence herbicidal rating CHEAL: 9.0
[18]; Rate 0.2500 kg/ha
  Preemergence herbicidal rating CHEAL: 9.0
[19]; rate 0.0320 kg/ha
  herbicidal rating, CYPSE: 0.0
[19]; rate 0.1250 kg/ha
  herbicidal rating, CYPSE: 0.0

## Cc1ccc(-c2nsc3ccc(-n4c(=O)cc(C(F)(F)F)n(C)c4=O)cc23)nc1 [Compound 42, 1-methyl-3-[3-(5-methyl-2-pyridyl)-1,2-benzisothiazol-5-yl]-6-(trifluoromethyl)uracil]
[1]; rate 0.0320 kg/ha
  Postemergence herbicidal rating, CASOB: 1.0
[1]; rate 0.0620 kg/ha
  Postemergence herbicidal rating, CASOB: 1.0
[1]; rate 0.1250 kg/ha
  Postemergence herbicidal rating, CASOB: 4.0
[2]; rate 0.0320 kg/ha
  Postemergence herbicidal rating, AMBEL: 9.0
[2]; rate 0.0620 kg/ha
  Postemergence herbicidal rating, AMBEL: 9.0
[2]; rate 0.1250 kg/ha
  Postemergence herbicidal rating, AMBEL: 9.0
[3]; rate 0.0320 kg/ha
  Postemergence herbicidal rating, CHEAL: 9.0
[3]; rate 0.0620 kg/ha
  Postemergence herbicidal rating, CHEAL: 9.0
[3]; rate 0.1250 kg/ha
  Postemergence herbicidal rating, CHEAL: 9.0
[4]; rate 0.0320 kg/ha
  Postemergence herbicidal rating, IPOHE: 9.0
[4]; rate 0.0620 kg/ha
  Postemergence herbicidal rating, IPOHE: 9.0
[4]; rate 0.1250 kg/ha
  Postemergence herbicidal rating, IPOHE: 9.0
[5]; rate 0.0320 kg/ha
  Postemergence herbicidal rating, ABUTH: 9.0
[5]; rate 0.0620 kg/ha
  Postemergence herbicidal rating, ABUTH: 9.0
[5]; rate 0.1250 kg/ha
  Postemergence herbicidal rating, ABUTH: 9.0
[6]; rate 0.0320 kg/ha
  herbicidal rating, MOOVA: 8.0
[6]; rate 0.1250 kg/ha
  herbicidal rating, MOOVA: 9.0
GALAP (Galium aparine) [7]; Rate 0.0620 kg/ha
  Preemergence herbicidal rating GALAP: 0.0
GALAP (Galium aparine) [7]; Rate 0.1250 kg/ha
  Preemergence herbicidal rating GALAP: 0.0
GALAP (Galium aparine) [7]; Rate 0.2500 kg/ha
  Preemergence herbicidal rating GALAP: 3.0
SETVI (Setaria viridis) [8]; rate 0.0320 kg/ha
  Postemergence herbicidal rating, SETVI: 5.0
SETVI (Setaria viridis) [8]; rate 0.0620 kg/ha
  Postemergence herbicidal rating, SETVI: 5.0
SETVI (Setaria viridis) [8]; rate 0.1250 kg/ha
  Postemergence herbicidal rating, SETVI: 9.0
[9]; rate 0.0320 kg/ha
  Postemergence herbicidal rating, TRZAWR: 4.0
[9]; rate 0.0620 kg/ha
  Postemergence herbicidal rating, TRZAWR: 5.0
[9]; rate 0.1250 kg/ha
  Postemergence herbicidal rating, TRZAWR: 5.0
ORYSAT (Rice, Tebonnet) [10]; rate 0.0320 kg/ha
  Postemergence herbicidal rating, ORYSAT: 1.0
ORYSAT (Rice, Tebonnet) [10]; rate 0.0620 kg/ha
  Postemergence herbicidal rating, ORYSAT: 1.5
ORYSAT (Rice, Tebonnet) [10]; rate 0.1250 kg/ha
  Postemergence herbicidal rating, ORYSAT: 1.5
GALAP (Galium aparine) [11]; rate 0.0320 kg/ha
  Postemergence herbicidal rating, GALAP: 1.0
GALAP (Galium aparine) [11]; rate 0.0620 kg/ha
  Postemergence herbicidal rating, GALAP: 3.0
GALAP (Galium aparine) [11]; rate 0.1250 kg/ha
  Postemergence herbicidal rating, GALAP: 3.0
CYPIR (Cyperus iria); rate 0.0320 kg/ha
  herbicidal rating, CYPIR: 3.0
CYPIR (Cyperus iria); rate 0.1250 kg/ha
  herbicidal rating, CYPIR: 6.0
[12]; rate 0.0320 kg/ha
  herbicidal rating, SAGPY: 0.0
[12]; rate 0.1250 kg/ha
  herbicidal rating, SAGPY: 3.0
ORYSAT (Rice, Tebonnet) [13]; Rate 0.0620 kg/ha
  Preemergence herbicidal rating ORYSAT: 0.0
ORYSAT (Rice, Tebonnet) [13]; Rate 0.1250 kg/ha
  Preemergence herbicidal rating ORYSAT: 3.5
ORYSAT (Rice, Tebonnet) [13]; Rate 0.2500 kg/ha
  Preemergence herbicidal rating ORYSAT: 5.0
[14]; Rate 0.0620 kg/ha
  Preemergence herbicidal rating ECHCG: 1.0
[14]; Rate 0.1250 kg/ha
  Preemergence herbicidal rating ECHCG: 5.5
[14]; Rate 0.2500 kg/ha
  Preemergence herbicidal rating ECHCG: 8.5
SETVI (Setaria viridis) [15]; Rate 0.0620 kg/ha
  Preemergence herbicidal rating SETVI: 5.0
SETVI (Setaria viridis) [15]; Rate 0.1250 kg/ha
  Preemergence herbicidal rating SETVI: 7.5
SETVI (Setaria viridis) [15]; Rate 0.2500 kg/ha
  Preemergence herbicidal rating SETVI: 9.0
[16]; Rate 0.0620 kg/ha
  Preemergence herbicidal rating CASOB: 0.5
[16]; Rate 0.1250 kg/ha
  Preemergence herbicidal rating CASOB: 0.5
[16]; Rate 0.2500 kg/ha
  Preemergence herbicidal rating CASOB: 0.0
[17]; Rate 0.0620 kg/ha
  Preemergence herbicidal rating AMBEL: 1.0
[17]; Rate 0.1250 kg/ha
  Preemergence herbicidal rating AMBEL: 4.5
[17]; Rate 0.2500 kg/ha
  Preemergence herbicidal rating AMBEL: 9.0
[18]; Rate 0.0620 kg/ha
  Preemergence herbicidal rating CHEAL: 9.0
[18]; Rate 0.1250 kg/ha
  Preemergence herbicidal rating CHEAL: 9.0
[18]; Rate 0.2500 kg/ha
  Preemergence herbicidal rating CHEAL: 9.0
[19]; rate 0.0320 kg/ha
  herbicidal rating, CYPSE: 0.0
[19]; rate 0.1250 kg/ha
  herbicidal rating, CYPSE: 0.0
